# Numbers after ± are expanded uncertainties.
# Details: 323.15 K, Liquid, Vibrating tube method
structure (smiles),measurement,setting,value
CCCCCCC(=O)OCC(COC(=O)CCCCCC)(COC(=O)CCCCCC)COC(=O)CCCCCC [pentaerythritol tetraheptanoate],mass density,15070 kPa,965.6 ± 1.2 kg/m3
same,mass density,15097 kPa,965.6 ± 1.2 kg/m3
same,mass density,15124 kPa,965.6 ± 1.2 kg/m3
same,mass density,15154 kPa,965.6 ± 1.2 kg/m3
same,mass density,15175 kPa,965.8 ± 1.2 kg/m3
same,mass density,15192 kPa,965.7 ± 1.2 kg/m3
same,mass density,15213 kPa,965.7 ± 1.2 kg/m3
same,mass density,15230 kPa,965.7 ± 1.2 kg/m3
same,mass density,15251 kPa,965.6 ± 1.2 kg/m3
same,mass density,15268 kPa,965.8 ± 1.2 kg/m3
same,mass density,15287 kPa,965.7 ± 1.2 kg/m3
same,mass density,15328 kPa,965.7 ± 1.2 kg/m3
same,mass density,15347 kPa,965.7 ± 1.2 kg/m3
same,mass density,15381 kPa,965.7 ± 1.2 kg/m3
same,mass density,15629 kPa,966.1 ± 1.2 kg/m3
same,mass density,15638 kPa,966.1 ± 1.2 kg/m3
same,mass density,15649 kPa,966 ± 1.2 kg/m3
same,mass density,15707 kPa,966 ± 1.2 kg/m3
same,mass density,15727 kPa,966 ± 1.2 kg/m3
same,mass density,15736 kPa,966 ± 1.2 kg/m3
same,mass density,15745 kPa,966 ± 1.2 kg/m3
same,mass density,15765 kPa,966.1 ± 1.2 kg/m3
same,mass density,15774 kPa,966.1 ± 1.2 kg/m3
same,mass density,15785 kPa,966.1 ± 1.2 kg/m3
same,mass density,15794 kPa,966 ± 1.2 kg/m3
same,mass density,15804 kPa,965.9 ± 1.2 kg/m3
same,mass density,15814 kPa,966 ± 1.2 kg/m3
same,mass density,15824 kPa,966.2 ± 1.2 kg/m3
same,mass density,15833 kPa,966.2 ± 1.2 kg/m3
same,mass density,15844 kPa,966.1 ± 1.2 kg/m3
same,mass density,15863 kPa,966.1 ± 1.2 kg/m3
same,mass density,15903 kPa,966.2 ± 1.2 kg/m3
same,mass density,15953 kPa,966.3 ± 1.2 kg/m3
same,mass density,15962 kPa,966.3 ± 1.2 kg/m3
same,mass density,15972 kPa,966.2 ± 1.2 kg/m3
same,mass density,15981 kPa,966.2 ± 1.2 kg/m3
same,mass density,15992 kPa,966.3 ± 1.2 kg/m3
same,mass density,16003 kPa,966.2 ± 1.2 kg/m3
same,mass density,16012 kPa,966.2 ± 1.2 kg/m3
same,mass density,16021 kPa,966.3 ± 1.2 kg/m3
same,mass density,16033 kPa,966.3 ± 1.2 kg/m3
same,mass density,16042 kPa,966.2 ± 1.2 kg/m3
same,mass density,16052 kPa,966.3 ± 1.2 kg/m3
same,mass density,16063 kPa,966.3 ± 1.2 kg/m3
same,mass density,16072 kPa,966.3 ± 1.2 kg/m3
same,mass density,16083 kPa,966.2 ± 1.2 kg/m3
same,mass density,16092 kPa,966.3 ± 1.2 kg/m3
same,mass density,16102 kPa,966.3 ± 1.2 kg/m3
same,mass density,16112 kPa,966.2 ± 1.2 kg/m3
same,mass density,16123 kPa,966.2 ± 1.2 kg/m3
same,mass density,16133 kPa,966.3 ± 1.2 kg/m3
same,mass density,16142 kPa,966.4 ± 1.2 kg/m3
same,mass density,16154 kPa,966.3 ± 1.2 kg/m3
same,mass density,16163 kPa,966.3 ± 1.2 kg/m3
same,mass density,16175 kPa,966.3 ± 1.2 kg/m3
same,mass density,16184 kPa,966.3 ± 1.2 kg/m3
same,mass density,16194 kPa,966.4 ± 1.2 kg/m3
same,mass density,16203 kPa,966.4 ± 1.2 kg/m3
same,mass density,16215 kPa,966.3 ± 1.2 kg/m3
same,mass density,16224 kPa,966.3 ± 1.2 kg/m3
same,mass density,16234 kPa,966.5 ± 1.2 kg/m3
same,mass density,16246 kPa,966.4 ± 1.2 kg/m3
same,mass density,16256 kPa,966.3 ± 1.2 kg/m3
same,mass density,16267 kPa,966.4 ± 1.2 kg/m3
same,mass density,16277 kPa,966.3 ± 1.2 kg/m3
same,mass density,16286 kPa,966.4 ± 1.2 kg/m3
same,mass density,16296 kPa,966.5 ± 1.2 kg/m3
same,mass density,16308 kPa,966.3 ± 1.2 kg/m3
same,mass density,16317 kPa,966.4 ± 1.2 kg/m3
same,mass density,16329 kPa,966.4 ± 1.2 kg/m3
same,mass density,16339 kPa,966.3 ± 1.2 kg/m3
same,mass density,16349 kPa,966.4 ± 1.2 kg/m3
same,mass density,16360 kPa,966.4 ± 1.2 kg/m3
same,mass density,16370 kPa,966.6 ± 1.2 kg/m3
same,mass density,16380 kPa,966.4 ± 1.2 kg/m3
same,mass density,16390 kPa,966.3 ± 1.2 kg/m3
same,mass density,16402 kPa,966.4 ± 1.2 kg/m3
same,mass density,16412 kPa,966.4 ± 1.2 kg/m3
same,mass density,16422 kPa,966.5 ± 1.2 kg/m3
same,mass density,16434 kPa,966.6 ± 1.2 kg/m3
same,mass density,16443 kPa,966.5 ± 1.2 kg/m3
same,mass density,16455 kPa,966.5 ± 1.2 kg/m3
same,mass density,16465 kPa,966.5 ± 1.2 kg/m3
same,mass density,16475 kPa,966.5 ± 1.2 kg/m3
same,mass density,16487 kPa,966.6 ± 1.2 kg/m3
same,mass density,16496 kPa,966.5 ± 1.2 kg/m3
same,mass density,16507 kPa,966.6 ± 1.2 kg/m3
same,mass density,16519 kPa,966.6 ± 1.2 kg/m3
same,mass density,16529 kPa,966.6 ± 1.2 kg/m3
same,mass density,16539 kPa,966.6 ± 1.2 kg/m3
same,mass density,16551 kPa,966.5 ± 1.2 kg/m3
same,mass density,16562 kPa,966.6 ± 1.2 kg/m3
same,mass density,16572 kPa,966.5 ± 1.2 kg/m3
same,mass density,16582 kPa,966.6 ± 1.2 kg/m3
same,mass density,16594 kPa,966.5 ± 1.2 kg/m3
same,mass density,16604 kPa,966.7 ± 1.2 kg/m3
same,mass density,16614 kPa,966.6 ± 1.2 kg/m3
same,mass density,16626 kPa,966.8 ± 1.2 kg/m3
same,mass density,16636 kPa,966.6 ± 1.2 kg/m3
same,mass density,16649 kPa,966.4 ± 1.2 kg/m3
same,mass density,16657 kPa,966.6 ± 1.2 kg/m3
same,mass density,16670 kPa,966.7 ± 1.2 kg/m3
same,mass density,16680 kPa,966.6 ± 1.2 kg/m3
same,mass density,16692 kPa,966.6 ± 1.2 kg/m3
same,mass density,16702 kPa,966.7 ± 1.2 kg/m3
same,mass density,16712 kPa,966.6 ± 1.2 kg/m3
same,mass density,16725 kPa,966.6 ± 1.2 kg/m3
same,mass density,16735 kPa,966.7 ± 1.2 kg/m3
same,mass density,16823 kPa,966.7 ± 1.2 kg/m3
same,mass density,16834 kPa,966.7 ± 1.2 kg/m3
same,mass density,16844 kPa,966.8 ± 1.2 kg/m3
same,mass density,16857 kPa,966.6 ± 1.2 kg/m3
